According to patent US12570988B2, “Aptamers that bind thiamine analogs and derivatives” (MeiraGTx Gene Regulation Limited, priority 2020, dated 2026):

How the values were obtained:
riboswitch 15D10 [1] = assay: Luciferase reporter with 15D10 riboswitch (Luci-15D10) in HEK 293 cells; assay type: cell-based, human; details: Homo sapiens, HEK293, 24 h, 50 μM; HEK 293 cells; Table 3; read-out: Fold increase in riboswitch 15D10-regulated luciferase expression, HEK
Method in brief: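 Cells transfected with riboswitch-luciferase plasmid; 4 h later medium replaced with TPP or thiamine analogs (fursultiamine, prosultiamine, bisbentiamine, beclotiamine, sulbutiamine) as inducers.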

riboswitch 15D10 [2] = assay: Luciferase reporter with 15D10 riboswitch (Luci-15D10) in AML12 cells; assay type: cell-based, mouse; details: Mus musculus, AML12, 24 h, 50 μM; AML12 cells; Table 3; read-out: Fold increase in riboswitch 15D10-regulated luciferase expression, AML

SMILES	fold induction at 50 µM (riboswitch 15D10 [1])	fold induction at 50 µM (riboswitch 15D10 [2])
C/C(=C(\CCO)SC(=O)c1c(F)cccc1Oc1ccccc1Cl)N(C=O)Cc1cnc(C)nc1N [Compound M142, (Z)—S-(2-(N-((4-amino-2-methylpyrimidin-5-yl)methyl)formamido)-5-hydroxypent-2-en-3-yl) 2-(2-chlorophenoxy)-6-fluorobenzothioate]	85.3	184
CCOc1ccc(C(=O)S/C(CCO)=C(/C)N(C=O)Cc2cnc(C)nc2N)c(Oc2cccc(F)c2)c1 [Compound M143, (Z)—S-(2-(N-((4-amino-2-methylpyrimidin-5-yl)methyl)formamido)-5-hydroxypent-2-en-3-yl) 4-ethoxy-2-(3-fluorophenoxy)benzothioate]	138	300
C/C(=C(\CCO)SC(=O)c1ccc(C(C)(C)C)cc1Oc1ccccc1)N(C=O)Cc1cnc(C)nc1N [Compound M145, (Z)—S-(2-(N-((4-amino-2-methylpyrimidin-5-yl)methyl)formamido)-5-hydroxypent-2-en-3-yl) 4-(tert-butyl)-2-phenoxybenzothioate]	156	60.6
C/C(=C(\CCO)SC(=O)c1ccccc1Oc1ccc(C(F)(F)F)nc1)N(C=O)Cc1cnc(C)nc1N [Compound M146, (Z)—S-(2-(N-((4-amino-2-methylpyrimidin-5-yl)methyl)formamido)-5-hydroxypent-2-en-3-yl) 2-((6-(trifluoromethyl)pyridin-3-yl)oxy)benzothioate]	53.3	96.6
C/C(=C(\CCO)SC(=O)c1ccccc1Oc1ccc2c(c1)OCCO2)N(C=O)Cc1cnc(C)nc1N [Compound M147, (Z)—S-(2-(N-((4-amino-2-methylpyrimidin-5-yl)methyl)formamido)-5-hydroxypent-2-en-3-yl) 2-((2,3-dihydrobenzo[b][1,4]dioxin-6-yl)oxy)benzothioate]	193	267
C/C(=C(\CCO)SC(=O)c1cccc2c1oc1ccccc12)N(C=O)Cc1cnc(C)nc1N [Compound M148, (Z)—S-(2-(N-((4-amino-2-methylpyrimidin-5-yl)methyl)formamido)-5-hydroxypent-2-en-3-yl) dibenzo[b,d]furan-4-carbothioate]	153	288
C/C(=C(\CCO)SC(=O)c1ccc(Oc2ccccc2)cc1Cl)N(C=O)Cc1cnc(C)nc1N [Compound M149, (Z)—S-(2-(N-((4-amino-2-methylpyrimidin-5-yl)methyl)formamido)-5-hydroxypent-2-en-3-yl) 2-chloro-4-phenoxybenzothioate]	176	383
C/C(=C(\CCO)SC(=O)c1c(C)cc(Oc2ccccc2)cc1F)N(C=O)Cc1cnc(C)nc1N [Compound M150, (Z)—S-(2-(N-((4-amino-2-methylpyrimidin-5-yl)methyl)formamido)-5-hydroxypent-2-en-3-yl) 2-fluoro-6-methyl-4-phenoxybenzothioate]	12.3	12
C/C(=C(\CCO)SC(=O)c1ccc(Oc2cccc(Cl)c2)cc1C)N(C=O)Cc1cnc(C)nc1N [Compound M151, (Z)—S-(2-(N-((4-amino-2-methylpyrimidin-5-yl)methyl)formamido)-5-hydroxypent-2-en-3-yl) 4-(3-chlorophenoxy)-2-methylbenzothioate]	20.5	231
C/C(=C(\CCO)SC(=O)c1ccc(Oc2ccccc2)cc1Oc1ccccc1)N(C=O)Cc1cnc(C)nc1N [Compound M152, (Z)—S-(2-(N-((4-amino-2-methylpyrimidin-5-yl)methyl)formamido)-5-hydroxypent-2-en-3-yl) 2,4-diphenoxybenzothioate]	68.9	36.6
C/C(=C(\CCO)SC(=O)c1ccccc1Sc1ccccc1)N(C=O)Cc1cnc(C)nc1N [Compound M153, (Z)—S-(2-(N-((4-amino-2-methylpyrimidin-5-yl)methyl)formamido)-5-hydroxypent-2-en-3-yl) 2-(phenylthio)benzothioate]	442	535
C/C(=C(\CCO)SC(=O)c1ccccc1Oc1ccc(N2CCCC2=O)cc1)N(C=O)Cc1cnc(C)nc1N [Compound M155, (Z)—S-(2-(N-((4-amino-2-methylpyrimidin-5-yl)methyl)formamido)-5-hydroxypent-2-en-3-yl) 2-(4-(2-oxopyrrolidin-1-yl)phenoxy)benzothioate]	7.71	117
C/C(=C(\CCO)SC(=O)c1ccc(C(C)(C)C)cc1Oc1cccc(C(C)(C)C)c1)N(C=O)Cc1cnc(C)nc1N [Compound M156, (Z)—S-(2-(N-((4-amino-2-methylpyrimidin-5-yl)methyl)formamido)-5-hydroxypent-2-en-3-yl) 4-(tert-butyl)-2-(3-(tert-butyl)phenoxy)benzothioate]	0.06	10.1
C/C(=C(\CCO)SC(=O)c1ccccc1Oc1cccc2ccccc12)N(C=O)Cc1cnc(C)nc1N [Compound M157, (Z)—S-(2-(N-((4-amino-2-methylpyrimidin-5-yl)methyl)formamido)-5-hydroxypent-2-en-3-yl) 2-(naphthalen-1-yloxy)benzothioate]	118	316
C/C(=C(\CCO)SC(=O)c1cc(Cl)ccc1Oc1ccccc1Cl)N(C=O)Cc1cnc(C)nc1N [Compound M158, (Z)—S-(2-(N-((4-amino-2-methylpyrimidin-5-yl)methyl)formamido)-5-hydroxypent-2-en-3-yl) 5-chloro-2-(2-chlorophenoxy)benzothioate]	96.9	235
C/C(=C(\CCO)SC(=O)c1cc(Cl)ccc1Oc1ccccc1Br)N(C=O)Cc1cnc(C)nc1N [Compound M159, (Z)—S-(2-(N-((4-amino-2-methylpyrimidin-5-yl)methyl)formamido)-5-hydroxypent-2-en-3-yl) 2-(2-bromophenoxy)-5-chlorobenzothioate]	85.5	206
C/C(=C(\CCO)SC(=O)c1c(F)cccc1Oc1ccccc1Br)N(C=O)Cc1cnc(C)nc1N [Compound M160, (Z)—S-(2-(N-((4-amino-2-methylpyrimidin-5-yl)methyl)formamido)-5-hydroxypent-2-en-3-yl) 2-(2-bromophenoxy)-6-fluorobenzothioate]	79.5	131
